Data published in the supplement of paper PMC4862054.

Tests used:
HDQ-P1 [1] = conditions: 72 h
Outline: (§1)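 Plates of 384 wells holding compound in 5 µl medium received breast cancer cell lines in 20 µl suspension and were incubated 72 h. CellTiter-Blue (2.5 µl, 2 h, 37 °C) was used for viability, read at 560/590 nm, and every plate was normalised to vehicle and a positive kill control and assessed by Z'-factor. The EC50 derives from a percent-inhibition dose-response curve fit censored at the highest concentration, leaving out rows whose drug sensitivity score was zero.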

CAL-85-1 [2] = conditions: 72 h
Outline: as §1

CAL-148 [3] = conditions: 72 h
Outline: as §1

CAL-51 [4] = conditions: 72 h
Outline: as §1

DU-4475 [5] = conditions: 72 h
Outline: as §1

CAL-85-1 [6] = conditions: 72 h; remark: listed apart in the source
Procedure: (§2)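 Drug sensitivity and resistance testing (DSRT) of breast cancer cell lines in 384-well plates, 5 concentrations in 10-fold dilutions over a compound-specific 10,000-fold range. After 72 h, cytotoxicity was read by CellTox Green fluorescence and viability by CellTiter-Glo luminescence (multiplexed), normalised to DMSO and benzethonium chloride controls. EC50 is the inflection point of the fitted dose-response curve (bottom asymptote free, so it can be relative for partial curves) and is censored at the highest tested concentration. Rows with DSS 0 (no meaningful response) were excluded.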

CAL-51 [7] = conditions: 72 h; remark: listed apart in the source
Procedure: as §2

HDQ-P1 [8] = conditions: 72 h; remark: listed apart in the source
Outline: (§3)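 Two sequential readouts followed a 72 h incubation of breast cancer cell lines with compound at 5 concentrations in 10-fold steps over a compound-specific 10,000-fold range: CellTox Green fluorescence (485/520 nm) for cell death, then CellTiter-Glo luminescence, after 10 min at room temperature, for viability. Each plate was normalised to 0.1 % DMSO and a positive kill control. Dose-response curves were fitted for EC50, censored at the top concentration.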

MFM-223 [9] = conditions: 72 h
Outline: as §3

HCC1599 [10] = conditions: 72 h
Outline: as §3

CAL-148 [11] = conditions: 72 h; remark: listed apart in the source
Outline: as §3

DU-4475 [12] = conditions: 72 h; remark: listed apart in the source
Outline: as §3

SK-BR-3 = conditions: 72 h
Outline: as §1

CAL-120 [13] = conditions: 72 h
Outline: as §1

HCC1143 [14] = conditions: 72 h
Outline: as §1

BT-474 [15] = conditions: 72 h
Outline: as §1

Hs578T [16] = conditions: 72 h
Outline: as §1

MFM-223 [17] = conditions: 72 h; remark: listed apart in the source
Outline: as §1

MDA-MB-468 [18] = conditions: 72 h
Outline: as §1

HCC1599 [19] = conditions: 72 h; remark: listed apart in the source
Outline: as §1

HCC1937 = conditions: 72 h
Outline: as §1

MDA-MB-231 [20] = conditions: 72 h
Outline: as §1

BT-549 [21] = conditions: 72 h
Outline: as §1

BT-474 [22] = assay: normalised viability (% of control), CellTiter-Blue; higher = more viable cells (about 100 = DMSO control); conditions: incubation time: 72 h
Outline: (§4)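 Breast cancer cell lines in 20 µl suspension were seeded onto 384-well plates pre-loaded with compound dissolved in 5 µl medium, then incubated 72 h. CellTiter-Blue reagent (2.5 µl) was added for 2 h at 37 °C and fluorescence read at 560/590 nm. Each plate was normalised to vehicle (100) and a positive kill control (0), with Z'-factor quality control. The value is normalised viability at one listed concentration of the series.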

DU-4475 [23] = assay: as above; conditions: incubation time: 72 h
Outline: as §4

CAL-120 [24] = conditions: 72 h; remark: listed apart in the source
Procedure: as §2

Hs578T [25] = conditions: 72 h; remark: listed apart in the source
Procedure: as §2

CAL-148 [26] = conditions: 72 h; remark: listed apart in the source
Procedure: as §2

MDA-MB-231 [27] = conditions: 72 h; remark: listed apart in the source
Procedure: as §2

HCC1143 [28] = conditions: 72 h; remark: listed apart in the source
Outline: as §3

MDA-MB-436 = conditions: 72 h
Outline: as §1

BT-474 [29] = conditions: 72 h; remark: listed apart in the source
Procedure: as §2

MFM-223 [30] = conditions: 72 h; remark: listed apart in the source
Procedure: as §2

MDA-MB-468 [31] = conditions: 72 h; remark: listed apart in the source
Procedure: as §2

HCC1599 [32] = conditions: 72 h; remark: listed apart in the source
Procedure: as §2

MCF-10A = conditions: 72 h
Procedure: as §2

BT-549 [33] = conditions: 72 h; remark: listed apart in the source
Procedure: as §2

EC50, CellTiter-Glo (HCC1599 [10])	EC50, CellTiter-Blue viability (SK-BR-3)	EC50, CellTiter-Blue viability (HCC1143 [14])	EC50, CellTiter-Blue viability (BT-474 [15])	EC50, CellTiter-Blue viability (MDA-MB-468 [18])	EC50, CellTiter-Blue viability (HCC1599 [19])	EC50, CellTiter-Blue viability (HCC1937)	EC50, CellTiter-Blue viability (MDA-MB-231 [20])	EC50, CellTiter-Blue viability (BT-549 [21])	EC50, CellTiter-Glo (HCC1143 [28])	EC50, CellTiter-Blue viability (MDA-MB-436)	SMILES	EC50, CellTiter-Blue viability (HDQ-P1 [1])	EC50, CellTiter-Blue viability (CAL-85-1 [2])	EC50, CellTiter-Blue viability (CAL-148 [3])	EC50, CellTiter-Blue viability (CAL-51 [4])	EC50, CellTiter-Blue viability (DU-4475 [5])	EC50, CellTox Green (CAL-85-1 [6])	EC50, CellTox Green (CAL-51 [7])	EC50, CellTiter-Glo (HDQ-P1 [8])	EC50, CellTiter-Glo (MFM-223 [9])	EC50, CellTiter-Glo (CAL-148 [11])	EC50, CellTiter-Glo (DU-4475 [12])	EC50, CellTiter-Blue viability (CAL-120 [13])	EC50, CellTiter-Blue viability (Hs578T [16])	EC50, CellTiter-Blue viability (MFM-223 [17])	normalised viability (BT-474 [22]; 1000 nM)	normalised viability (DU-4475 [23]; 30 nM)	EC50, CellTox Green (CAL-120 [24])	EC50, CellTox Green (Hs578T [25])	EC50, CellTox Green (CAL-148 [26])	EC50, CellTox Green (MDA-MB-231 [27])	normalised viability (BT-474 [22]; 100 nM)	normalised viability (DU-4475 [23]; 3 nM)	EC50, CellTox Green (BT-474 [29])	EC50, CellTox Green (MFM-223 [30])	EC50, CellTox Green (MDA-MB-468 [31])	EC50, CellTox Green (HCC1599 [32])	EC50, CellTox Green (MCF-10A)	EC50, CellTox Green (BT-549 [33])
8.63 µM	0.539 µM	0.0077 µM	1.45 µM	5.59 µM	0.151 µM	0.101 µM	0.0978 µM	3.73 µM			Cn1cncc1[C@@](N)(c1ccc(Cl)cc1)c1ccc2c(c1)c(-c1cccc(Cl)c1)cc(=O)n2C [Tipifarnib]	0.0166 µM	0.0331 µM	0.033 µM	1.5 µM	0.0591 µM	4.74 µM	0.0199 µM	0.106 µM	5.05 µM	0.38 µM	0.412 µM	0.0555 µM	4.4 µM	1.01 µM	84.4%	69.3%												
0.973 µM	0.597 µM		0.613 µM	0.578 µM	0.331 µM	0.099 µM	0.676 µM	0.34 µM	> 1 µM	0.0435 µM	O=C1NC(=O)[C@@H](c2cn3c4c(cccc24)CCC3)[C@@H]1c1c[nH]c2ccccc12 [Tivantinib]		0.543 µM	0.759 µM	0.674 µM	0.847 µM	0.266 µM	0.671 µM			0.81 µM	0.222 µM	0.398 µM	0.592 µM				0.399 µM	0.0966 µM	0.00667 µM	0.474 µM	106%	89.2%						
0.0111 µM	0.000608 µM	0.00162 µM	0.0003 µM	0.0006 µM	0.0277 µM	0.00357 µM	0.00249 µM	0.0038 µM	0.00331 µM	0.00821 µM	CC[C@]1(O)C[C@H]2CN(CCc3c([nH]c4ccccc34)[C@@](C(=O)OC)(c3cc4c(cc3OC)N(C=O)[C@H]3[C@@](O)(C(=O)OC)[C@H](OC(C)=O)[C@]5(CC)C=CCN6CC[C@]43[C@@H]65)C2)C1 [Vincristine]	0.0112 µM	0.00533 µM	0.00872 µM	0.0267 µM	0.0179 µM	0.00239 µM	0.0281 µM	0.00222 µM	0.0199 µM	0.00648 µM	0.157 µM	0.001 µM	0.00272 µM	0.0169 µM	50.6%	48.9%		0.0851 µM		0.00549 µM	52%	94.7%	0.00419 µM	0.02 µM	0.0096 µM	0.489 µM	0.0041 µM	0.0091 µM
